Assay results reported in ChEMBL document CHEMBL1201862, “PubChem BioAssay data set” (2004).
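Growth conditions: 96-well plates. Treatment: test compound, 48 hours, 5 concentrations. Analysis: linear interpolation between bracketing concentrations; unreached endpoints set to highest concentration. The concentration for 50% growth inhibition is given as GI50.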 Calls of active or inactive are those of the source. Cut-off read from the data, not from the text of the source: active = GI50 up to about 1.1 µM and inactive = higher.

Key:
Experiment in all cases: NCI tumour cell line growth inhibition, 48 h
K562 = system: K562
OVCAR-5 = system: OVCAR-5
SNB-75 = system: SNB-75
HCT-116 = system: HCT-116
A498 = system: A498
MDA-N = system: MDA-N
BT-549 = system: BT-549
NCI-H226 = system: NCI-H226
SNB-19 = system: SNB-19
TK-10 = system: TK-10
SF-295 = system: SF-295
OVCAR-4 = system: OVCAR-4
UO-31 = system: UO-31
786-0 = system: 786-0
SR = system: SR
NCI-H460 = system: NCI-H460
M14 = system: M14
MDA-MB-231 = system: MDA-MB-231
CCRF-CEM = system: CCRF-CEM
SK-MEL-2 = system: SK-MEL-2
T47D = system: T47D
SF-268 = system: SF-268
RXF 393 = system: RXF 393
OVCAR-8 = system: OVCAR-8
A549 = system: A549
SK-MEL-5 = system: SK-MEL-5
MCF7 = system: MCF7
MOLT-4 = system: MOLT-4
Malme-3M = system: Malme-3M
UACC-62 = system: UACC-62
DU-145 = system: DU-145
NCI/ADR-RES = system: NCI/ADR-RES
HCT-15 = system: HCT-15
CAKI-1 = system: CAKI-1
RPMI-8226 = system: RPMI-8226
COLO 205 = system: COLO 205
HCC 2998 = system: HCC 2998
EKVX = system: EKVX
PC-3 = system: PC-3
OVCAR-3 = system: OVCAR-3
MDA-MB-435 = system: MDA-MB-435
ACHN = system: ACHN
UACC-257 = system: UACC-257
LOX IMVI = system: LOX IMVI
SK-MEL-28 = system: SK-MEL-28
SF-539 = system: SF-539
SN12C = system: SN12C
NCI-H522 = system: NCI-H522
NCI-H23 = system: NCI-H23
SK-OV-3 = system: SK-OV-3
HOP-62 = system: HOP-62
U-251 = system: U-251
KM12 = system: KM12
SW-620 = system: SW-620
HT-29 = system: HT-29
Hs-578T = system: Hs-578T
IGROV-1 = system: IGROV-1
HL-60 = system: HL-60
HOP-92 = system: HOP-92

c1csc(-c2ccc(-c3cccc4nsnc34)s2)c1
GI50 (K562): 32 µM (inactive)
GI50 (OVCAR-5): 71.1 µM (inactive)
GI50 (SNB-75): 49.3 µM (inactive)
GI50 (HCT-116): 94.8 µM (inactive)
GI50 (A498): > 100 µM (inactive)
GI50 (MDA-N): 40.4 µM (inactive)
GI50 (BT-549): > 100 µM (inactive)
GI50 (NCI-H226): > 100 µM (inactive)
GI50 (SNB-19): > 100 µM (inactive)
GI50 (TK-10): 70.5 µM (inactive)
GI50 (SF-295): 44.8 µM (inactive)
GI50 (OVCAR-4): 21.7 µM (inactive)
GI50 (UO-31): > 100 µM (inactive)
GI50 (786-0): 39.5 µM (inactive)
GI50 (SR): 13 µM (inactive)
GI50 (NCI-H460): > 100 µM (inactive)
GI50 (M14): > 100 µM (inactive)
GI50 (MDA-MB-231): > 100 µM (inactive)
GI50 (CCRF-CEM): 20.2 µM (inactive)
GI50 (SK-MEL-2): > 100 µM (inactive)
GI50 (T47D): 5.32 µM (inactive)
GI50 (SF-268): > 100 µM (inactive)
GI50 (RXF 393): 94.4 µM (inactive)
GI50 (OVCAR-8): > 100 µM (inactive)
GI50 (A549): 62.1 µM (inactive)
GI50 (SK-MEL-5): > 100 µM (inactive)
GI50 (MCF7): 14.7 µM (inactive)
GI50 (MOLT-4): 18.7 µM (inactive)
GI50 (Malme-3M): > 100 µM (inactive)
GI50 (UACC-62): > 100 µM (inactive)
GI50 (DU-145): > 100 µM (inactive)
GI50 (NCI/ADR-RES): > 100 µM (inactive)
GI50 (HCT-15): > 100 µM
GI50 (CAKI-1): 35.8 µM (inactive)
GI50 (RPMI-8226): 85.3 µM (inactive)
GI50 (COLO 205): > 100 µM (inactive)
GI50 (HCC 2998): > 100 µM (inactive)
GI50 (EKVX): > 100 µM (inactive)
GI50 (PC-3): > 100 µM (inactive)
GI50 (OVCAR-3): > 100 µM (inactive)
GI50 (MDA-MB-435): > 100 µM (inactive)
GI50 (ACHN): > 100 µM (inactive)
GI50 (UACC-257): > 100 µM (inactive)
GI50 (LOX IMVI): > 100 µM (inactive)
GI50 (SK-MEL-28): > 100 µM (inactive)
GI50 (SF-539): > 100 µM (inactive)
GI50 (SN12C): > 100 µM (inactive)
GI50 (NCI-H522): 71.6 µM (inactive)
GI50 (NCI-H23): > 100 µM (inactive)
GI50 (SK-OV-3): > 100 µM (inactive)
GI50 (HOP-62): 27.4 µM (inactive)
GI50 (U-251): 91.2 µM (inactive)
GI50 (KM12): > 100 µM (inactive)
GI50 (SW-620): > 100 µM (inactive)

O=C1N2CCC[C@H]2CS1(=O)=O
GI50 (K562): 5.62 µM (inactive)
GI50 (OVCAR-5): 36.9 µM (inactive)
GI50 (SNB-75): 18.6 µM (inactive)
GI50 (HCT-116): 12.7 µM (inactive)
GI50 (A498): 20.4 µM (inactive)
GI50 (BT-549): 14.8 µM (inactive)
GI50 (NCI-H226): 25.4 µM (inactive)
GI50 (SNB-19): 35.9 µM (inactive)
GI50 (HT-29): 28.5 µM (inactive)
GI50 (TK-10): 18.2 µM (inactive)
GI50 (SF-295): 40.2 µM (inactive)
GI50 (OVCAR-4): 11.8 µM (inactive)
GI50 (UO-31): 14.5 µM (inactive)
GI50 (786-0): 11.1 µM (inactive)
GI50 (NCI-H460): 32.7 µM (inactive)
GI50 (M14): 14.6 µM (inactive)
GI50 (MDA-MB-231): 15.4 µM (inactive)
GI50 (Hs-578T): 55.1 µM (inactive)
GI50 (CCRF-CEM): 2.3 µM (inactive)
GI50 (SK-MEL-2): 17.6 µM (inactive)
GI50 (T47D): 13.5 µM (inactive)
GI50 (SF-268): 20.7 µM (inactive)
GI50 (RXF 393): 7.36 µM (inactive)
GI50 (OVCAR-8): 13.6 µM (inactive)
GI50 (IGROV-1): 15.5 µM (inactive)
GI50 (A549): 22.8 µM (inactive)
GI50 (SK-MEL-5): 17.5 µM (inactive)
GI50 (MCF7): 6.73 µM (inactive)
GI50 (MOLT-4): 3.34 µM (inactive)
GI50 (Malme-3M): 13.2 µM (inactive)
GI50 (UACC-62): 16.4 µM (inactive)
GI50 (DU-145): 17.9 µM (inactive)
GI50 (NCI/ADR-RES): 30 µM (inactive)
GI50 (HCT-15): 12.6 µM
GI50 (CAKI-1): 5.73 µM (inactive)
GI50 (RPMI-8226): 2.77 µM (inactive)
GI50 (COLO 205): 12.2 µM (inactive)
GI50 (HCC 2998): 17.3 µM (inactive)
GI50 (EKVX): 22 µM (inactive)
GI50 (PC-3): 16.5 µM (inactive)
GI50 (OVCAR-3): 15.8 µM (inactive)
GI50 (MDA-MB-435): 17.1 µM (inactive)
GI50 (ACHN): 15.2 µM (inactive)
GI50 (UACC-257): 18.7 µM (inactive)
GI50 (LOX IMVI): 11.3 µM (inactive)
GI50 (SK-MEL-28): 18.4 µM (inactive)
GI50 (SF-539): 29.5 µM (inactive)
GI50 (SN12C): 15.7 µM (inactive)
GI50 (NCI-H522): 5.66 µM (inactive)
GI50 (HL-60): 19.1 µM (inactive)
GI50 (NCI-H23): 15.8 µM (inactive)
GI50 (SK-OV-3): 36.6 µM (inactive)
GI50 (HOP-62): 16.1 µM (inactive)
GI50 (U-251): 16.5 µM (inactive)
GI50 (KM12): 16.6 µM (inactive)
GI50 (HOP-92): 10.9 µM (inactive)
GI50 (SW-620): 8 µM (inactive)
